Measured values taken from BindingDB's records for doi:10.1021/ml2002482 (2012).

Assay: Inhibition of human recombinant ICAM-1 adhesion into human Jurkat cells after 1 hr

IC50: 2.98 nM
Structure (SMILES): CS(=O)(=O)c1cccc(C[C@H](NC(=O)c2c(Cl)cc3c(c2Cl)CCN(C(=O)c2ccc4ccoc4c2)C3)C(=O)O)c1
